According to patent US7183320B2, “Benzoylsulfonamides and sulfonylbenzamidines for use as antitumour agents” (Eli Lilly and Company, priority 2002, dated 2007):

Key:
Assay type in all cases: in vivo
HUMAN PROSTATE LNCaP = assay: Early stage human prostate LNCaP xenograft (Table VII); details: total dose 840 mg/kg: 140 mg/kg/injection IV on days 3, 5, 7, 9, 10, and 11, Balb/C SCID female mice
Source text: (§1) Conventional Murine Tumor and Human Tumor Xenouraft Assays
(§2) Inhibition of tumors transplanted into mice is an accepted procedure for studying the efficacy of antitumor agents (Corbett, et al., In vivo Methods for Screening and Preclinical Testing; Use of rodent solid tumors for drug discovery., In: Anticancer Drug Development Guide: Preclinical Screening, Clinical Trials, and Approval, B. Teicher (ed), Humana Press Inc., Totowa, N.J., Chapter 5, pages 75–99 (1997); (Corbett, et al., Int., J. Parmacog., 33, Supplement, 102–122 (1995)). Murine tumors or human xenographs were implanted essentially as described by Corbett in In vivo Methods for Screening and Preclimical Testing; Use of rodent solid tumors for drug discovery. Briefly, the murine tumor or human xenograph was implanted subcutaneously using either 12-gauge trocar implants or counted number of cells. The location for the trocar insertion is midway between the axillary and inguinal region along the side of the mouse. The trocar is slipped approximately ¾ of an inch subcutaneously up toward the axilla before discharging the tumor fragment, and pinching the skin as the trocar is removed., Alternatively, human tumor cells prepared from a […] of donor tumors (5×10^6 cells) were implanted subcutaneously in a hind-leg of a male or female nude mouse (Charles River). Either a test compound in vehicle or vehicle alone was administered by intravenous bolus injection (iv), intraperitoneal injection (ip), or oral gavage (po). Each treatment group, as well as a group of untreated control animals, consisted of five animals per group in each experiment. Subcutaneous tumor response was monitored by tumor volume measurement performed twice each week over the course of the experiment (60–120 days). Body weights were taken as a general measure of toxicity. The subcutaneous tumor data were analyzed by determining the median tumor weight for each treatment group over the course of the experiment and calculating the tumor growth delay as the difference in days for the treatment versus the control tumors to reach a volume of either 500 or 1000 mm^3.
(§3) The compound of Example 110 was tested against a variety of murine and human tumors substantially as described supra. The parameters measured in each experiment are summarized in the following paragraphs. • Tumor Weight(mg)=(a×b^2)/2 where a=tumor length (mm) and b=tumor width (mm). • Tumor Growth Delay=T−C where T is the median time (days) required for the treatment group tumors to reach a predetermined size, and C is the median time (days) for the control group tumors to reach the same size. Tumor-free survivors are excluded from this calculation, and are tabulated separately (Tumor Free).
(§4) [formula] • where Tumor Growth Delay is as previously defined and Td is tumor volume doubling time (days), estimated from the best fit straight line from a log-linear growth plot of the control group of tumors in exponential growth (100–800 mg range) • % T/C mass—The treatment and control groups are measured when the control group tumors reach approximately 700 to 1200 mg in size (median group). The median tumor weight of each group is determined (including zeros). The T/C value in percent is an indication of antitumor effectiveness. A T/C≦42% is considered significant antitumor activity. A T/C<10% is considered to indicate highly significant antitumor activity. • Body Weight Loss Nadir—A body weight loss nadir (mean of group) of greater than 20% or drug deaths greater than 20% are considered to indicate an excessively toxic dosage in single course trials. • Activity Rating—the Activity Rating is derived from the Log Kill according to the following table: […]

[1] = system: TAXOL RESISTANT HUMAN COLON ADENOCARCINOMA #15/MDR; assay: Early stage taxol resistant human colon adenocarcinoma #15/MDR xenograft (Table XII); details: total dose 500 mg/kg: 100 mg/kg/injection IV on days 3–5 and 13–14; Balb/C SCID female mice
Source text: as §1, §2, §3, §4

[2] = system: MURINE SQUAMOUS LUNG LC-12; assay: Early stage murine squamous lung LC-12 (Table VI); details: Balb/C female mice
Source text: as §1
Briefly, the murine tumor or human xenograph was implanted subcutaneously using either 12-gauge trocar implants or counted number of cells. The location for the trocar insertion is midway between the axillary and inguinal region along the side of the mouse. The trocar is slipped approximately ¾ of an inch subcutaneously up toward the axilla before discharging the tumor fragment, and pinching the skin as the trocar is removed., Alternatively, human tumor cells prepared from a […] of donor tumors (5×10^6 cells) were implanted subcutaneously in a hind-leg of a male or female nude mouse (Charles River). Either a test compound in vehicle or vehicle alone was administered by intravenous bolus injection (iv), intraperitoneal injection (ip), or oral gavage (po). Each treatment group, as well as a group of untreated control animals, consisted of five animals per group in each experiment. […] Body weights were taken as a general measure of toxicity. The subcutaneous tumor data were analyzed by determining the median tumor weight for each treatment group over the course of the experiment and calculating the tumor growth delay as the difference in days for the treatment versus the control tumors to reach a volume of either 500 or 1000 mm^3.
as §3, with “The” for “The compound of Example 110 was tested against a variety of murine and human tumors substantially as described supra. The”
The median tumor weight of each group is determined (including zeros). The T/C value in percent is an indication of antitumor effectiveness.

[3] = system: TAXOL SENSITIVE HUMAN COLON ADENOCARCINOMA #15/0; assay: Early stage taxol sensitive human colon adenocarcinoma #15/0 xenograft (Table V); details: total dose 420 mg/kg: 140 mg/kg/injection IV on days 3, 5, and 7; Balb/C SCID female mice
Source text: as §1, §2, §3, §4

[4] = total dose 640 mg/kg: 160 mg/kg/injection IV on days 4, 6, 8, and 10
[5] = total dose 1391 mg/kg: 107 mg/kg/injection IV every second day, days 4 to 28

## O=C(NS(=O)(=O)c1ccccc1)c1ccc(Cl)cc1Cl [Example 110, N-[2,4-dichlorobenzoyl]phenylsulfonamide]
HUMAN PROSTATE LNCaP
  % BODY WT LOSS AT NADIR: +5.6%
  % T/C MASS: 0%
  ACTIVITY RATING: ++++ (HIGHLY ACTIVE >2.8)
  DRUG DEATHS: 0/5
  TUMOR FREE AT DAY 185: 4/5
HUMAN PROSTATE LNCaP; one mouse
  GROWTH DELAY (DAYS): 60^b DAYS
  LOG KILL: 7.2^b
[1]
  % BODY WT LOSS AT NADIR: +2.1% ^
  % T/C MASS: 10%
  ACTIVITY RATING: ++ (1.3–1.9)
  DRUG DEATHS: 0/5
  GROWTH DELAY: 11 days
  LOG KILL: 1.4
  TUMOR FREE AT DAY 38: 0/5
[2]; [4]
  % BODY WT LOSS AT NADIR: 0%
  % T/C MASS: 14%
  ACTIVITY RATING: ++ (1.3–1.9)
  DRUG DEATHS: 0/4
  GROWTH DELAY: 12.5 days
  LOG KILL: 1.7
  TUMOR FREE AT DAY 174: 0/4
[2]; [5]
  % BODY WT LOSS AT NADIR: +1.6%
  % T/C MASS: 20%
  ACTIVITY RATING: +++ (2.0–2.8)
  DRUG DEATHS: 0/5
  GROWTH DELAY: 15.5 days
  LOG KILL: 2.1
  TUMOR FREE AT DAY 174: 0/5
[3]
  % BODY WT LOSS AT NADIR: 0%
  % T/C MASS: 0%
  ACTIVITY RATING: ++++ (HIGHLY ACTIVE >2.8)
  DRUG DEATHS: 0/5
  GROWTH DELAY: 33.5 days
  LOG KILL: 5.0
  TUMOR FREE AT DAY 151: 1/5
